Measurements reported in ChEMBL document CHEMBL1177779, “Development of dual functional SPECT/fluorescent probes for imaging cerebral beta-amyloid plaques” (Bioorg Med Chem Lett, 2010).
One block for each molecule: values may come before it.

Key:
[1] = Displacement of [125I]IMPY from amyloid beta (1-42) after 3 hrs by gamma counting
[2] = test system: Blood; test: Biodistribution in ddY mouse blood assessed per gram of tissue at 7.77 KBq, iv after 2 mins by gamma counting; format: ADME, organism-based; details: in vivo
[3] = test system: Blood; test: Biodistribution in ddY mouse blood assessed per gram of tissue at 7.77 KBq, iv after 10 mins by gamma counting; format: ADME, organism-based; details: in vivo
[4] = test system: Blood; test: Biodistribution in ddY mouse blood assessed per gram of tissue at 7.77 KBq, iv after 30 mins by gamma counting; format: ADME, organism-based; details: in vivo, 0.5 h
[5] = test system: Blood; test: Biodistribution in ddY mouse blood assessed per gram of tissue at 7.77 KBq, iv after 60 mins by gamma counting; format: ADME, organism-based; details: in vivo, 1 h
[6] = test system: Liver; test: Biodistribution in ddY mouse liver assessed per gram of tissue at 7.77 KBq, iv after 2 mins by gamma counting; format: ADME, organism-based; details: in vivo
[7] = test system: Liver; test: Biodistribution in ddY mouse liver assessed per gram of tissue at 7.77 KBq, iv after 10 mins by gamma counting; format: ADME, organism-based; details: in vivo
[8] = test system: Liver; test: Biodistribution in ddY mouse liver assessed per gram of tissue at 7.77 KBq, iv after 30 mins by gamma counting; format: ADME, organism-based; details: in vivo, 0.5 h
[9] = test system: Liver; test: Biodistribution in ddY mouse liver assessed per gram of tissue at 7.77 KBq, iv after 60 mins by gamma counting; format: ADME, organism-based; details: in vivo, 1 h
[10] = test system: Kidney; test: Biodistribution in ddY mouse kidney assessed per gram of tissue at 7.77 KBq, iv after 2 mins by gamma counting; format: ADME, organism-based; details: in vivo
[11] = test system: Kidney; test: Biodistribution in ddY mouse kidney assessed per gram of tissue at 7.77 KBq, iv after 10 mins by gamma counting; format: ADME, organism-based; details: in vivo
[12] = test system: Kidney; test: Biodistribution in ddY mouse kidney assessed per gram of tissue at 7.77 KBq, iv after 30 mins by gamma counting; format: ADME, organism-based; details: in vivo, 0.5 h
[13] = test system: Kidney; test: Biodistribution in ddY mouse kidney assessed per gram of tissue at 7.77 KBq, iv after 60 mins by gamma counting; format: ADME, organism-based; details: in vivo, 1 h
[14] = test system: Intestine; test: Biodistribution in ddY mouse intestine assessed per gram of tissue at 7.77 KBq, iv after 2 mins by gamma counting; format: ADME, organism-based; details: in vivo
[15] = test system: Intestine; test: Biodistribution in ddY mouse intestine assessed per gram of tissue at 7.77 KBq, iv after 10 mins by gamma counting; format: ADME, organism-based; details: in vivo
[16] = test system: Intestine; test: Biodistribution in ddY mouse intestine assessed per gram of tissue at 7.77 KBq, iv after 30 mins by gamma counting; format: ADME, organism-based; details: in vivo, 0.5 h
[17] = test system: Intestine; test: Biodistribution in ddY mouse intestine assessed per gram of tissue at 7.77 KBq, iv after 60 mins by gamma counting; format: ADME, organism-based; details: in vivo, 1 h
[18] = test system: Spleen; test: Biodistribution in ddY mouse spleen assessed per gram of tissue at 7.77 KBq, iv after 2 mins by gamma counting; format: ADME, organism-based; details: in vivo
[19] = test system: Spleen; test: Biodistribution in ddY mouse spleen assessed per gram of tissue at 7.77 KBq, iv after 10 mins by gamma counting; format: ADME, organism-based; details: in vivo
[20] = test system: Spleen; test: Biodistribution in ddY mouse spleen assessed per gram of tissue at 7.77 KBq, iv after 30 mins by gamma counting; format: ADME, organism-based; details: in vivo, 0.5 h
[21] = test system: Spleen; test: Biodistribution in ddY mouse spleen assessed per gram of tissue at 7.77 KBq, iv after 60 mins by gamma counting; format: ADME, organism-based; details: in vivo, 1 h
[22] = test system: Pancreas; test: Biodistribution in ddY mouse pancreas assessed per gram of tissue at 7.77 KBq, iv after 2 mins by gamma counting; format: ADME, organism-based; details: in vivo
[23] = test system: Pancreas; test: Biodistribution in ddY mouse pancreas assessed per gram of tissue at 7.77 KBq, iv after 10 mins by gamma counting; format: ADME, organism-based; details: in vivo
[24] = test system: Pancreas; test: Biodistribution in ddY mouse pancreas assessed per gram of tissue at 7.77 KBq, iv after 30 mins by gamma counting; format: ADME, organism-based; details: in vivo, 0.5 h
[25] = test system: Pancreas; test: Biodistribution in ddY mouse pancreas assessed per gram of tissue at 7.77 KBq, iv after 60 mins by gamma counting; format: ADME, organism-based; details: in vivo, 1 h
[26] = test system: Heart; test: Biodistribution in ddY mouse heart assessed per gram of tissue at 7.77 KBq, iv after 2 mins by gamma counting; format: ADME, organism-based; details: in vivo
[27] = test system: Heart; test: Biodistribution in ddY mouse heart assessed per gram of tissue at 7.77 KBq, iv after 10 mins by gamma counting; format: ADME, organism-based; details: in vivo
[28] = test system: Heart; test: Biodistribution in ddY mouse heart assessed per gram of tissue at 7.77 KBq, iv after 30 mins by gamma counting; format: ADME, organism-based; details: in vivo, 0.5 h
[29] = test system: Heart; test: Biodistribution in ddY mouse heart assessed per gram of tissue at 7.77 KBq, iv after 60 mins by gamma counting; format: ADME, organism-based; details: in vivo, 1 h
[30] = test system: Stomach; test: Biodistribution in ddY mouse stomach assessed per organ at 7.77 KBq, iv after 2 mins by gamma counting; format: ADME, organism-based; details: in vivo
[31] = test system: Stomach; test: Biodistribution in ddY mouse stomach assessed per organ at 7.77 KBq, iv after 10 mins by gamma counting; format: ADME, organism-based; details: in vivo
[32] = test system: Stomach; test: Biodistribution in ddY mouse stomach assessed per organ at 7.77 KBq, iv after 30 mins by gamma counting; format: ADME, organism-based; details: in vivo, 0.5 h
[33] = test system: Stomach; test: Biodistribution in ddY mouse stomach assessed per organ at 7.77 KBq, iv after 60 mins by gamma counting; format: ADME, organism-based; details: in vivo, 1 h
[34] = test system: Brain; test: Biodistribution in ddY mouse brain assessed per gram of tissue at 7.77 KBq, iv after 2 mins by gamma counting; format: ADME, organism-based; details: in vivo
[35] = test system: Brain; test: Biodistribution in ddY mouse brain assessed per gram of tissue at 7.77 KBq, iv after 10 mins by gamma counting; format: ADME, organism-based; details: in vivo
[36] = test system: Brain; test: Biodistribution in ddY mouse brain assessed per gram of tissue at 7.77 KBq, iv after 30 mins by gamma counting; format: ADME, organism-based; details: in vivo, 0.5 h
[37] = test system: Brain; test: Biodistribution in ddY mouse brain assessed per gram of tissue at 7.77 KBq, iv after 60 mins by gamma counting; format: ADME, organism-based; details: in vivo, 1 h

Ki [1]: 0.108 µM | inhibition [1]: Dose-dependent effect
SMILES: CC1=CC(C)=[N+]2C1=Cc1ccc(/C=C/c3ccc(-c4ccc(I)cc4)s3)n1[B-]2(F)F

Drug uptake [2]: 11.67 % ID/g | Drug uptake [3]: 4.09 % ID/g | Drug uptake [4]: 3.09 % ID/g | Drug uptake [5]: 2.44 % ID/g | Drug uptake [6]: 35.51 % ID/g | Drug uptake [7]: 46.02 % ID/g | Drug uptake [8]: 45.87 % ID/g | Drug uptake [9]: 45.78 % ID/g | Drug uptake [10]: 5.39 % ID/g | Drug uptake [11]: 4.79 % ID/g | Drug uptake [12]: 4.46 % ID/g | Drug uptake [13]: 4.43 % ID/g | Drug uptake [14]: 0.48 % ID/g | Drug uptake [15]: 0.93 % ID/g | Drug uptake [16]: 1.91 % ID/g | Drug uptake [17]: 3.04 % ID/g | Drug uptake [18]: 16.12 % ID/g | Drug uptake [19]: 26.9 % ID/g | Drug uptake [20]: 28.21 % ID/g | Drug uptake [21]: 21.52 % ID/g | Drug uptake [22]: 1.19 % ID/g | Drug uptake [23]: 0.74 % ID/g | Drug uptake [24]: 0.72 % ID/g | Drug uptake [25]: 0.92 % ID/g | Drug uptake [26]: 5.59 % ID/g | Drug uptake [27]: 2.95 % ID/g | Drug uptake [28]: 2.31 % ID/g | Drug uptake [29]: 2.3 % ID/g | Drug uptake [30]: 1.4 %ID | Drug uptake [31]: 4.73 %ID | Drug uptake [32]: 4.79 %ID | Drug uptake [33]: 5.5 %ID | Drug uptake [34]: 0.4 % ID/g | Drug uptake [35]: 0.19 % ID/g | Drug uptake [36]: 0.14 % ID/g | Drug uptake [37]: 0.14 % ID/g
SMILES: CC1=CC(C)=[N+]2C1=Cc1ccc(/C=C/c3ccc(-c4ccc([125I])cc4)s3)n1[B-]2(F)F
